Paper PMC2553423 (Glycobiology, 2008)

T1: EngPA (Cutibacterium acnes, UniProt A0ABM7H013)
T1 sequence (A0ABM7H013 1-1321): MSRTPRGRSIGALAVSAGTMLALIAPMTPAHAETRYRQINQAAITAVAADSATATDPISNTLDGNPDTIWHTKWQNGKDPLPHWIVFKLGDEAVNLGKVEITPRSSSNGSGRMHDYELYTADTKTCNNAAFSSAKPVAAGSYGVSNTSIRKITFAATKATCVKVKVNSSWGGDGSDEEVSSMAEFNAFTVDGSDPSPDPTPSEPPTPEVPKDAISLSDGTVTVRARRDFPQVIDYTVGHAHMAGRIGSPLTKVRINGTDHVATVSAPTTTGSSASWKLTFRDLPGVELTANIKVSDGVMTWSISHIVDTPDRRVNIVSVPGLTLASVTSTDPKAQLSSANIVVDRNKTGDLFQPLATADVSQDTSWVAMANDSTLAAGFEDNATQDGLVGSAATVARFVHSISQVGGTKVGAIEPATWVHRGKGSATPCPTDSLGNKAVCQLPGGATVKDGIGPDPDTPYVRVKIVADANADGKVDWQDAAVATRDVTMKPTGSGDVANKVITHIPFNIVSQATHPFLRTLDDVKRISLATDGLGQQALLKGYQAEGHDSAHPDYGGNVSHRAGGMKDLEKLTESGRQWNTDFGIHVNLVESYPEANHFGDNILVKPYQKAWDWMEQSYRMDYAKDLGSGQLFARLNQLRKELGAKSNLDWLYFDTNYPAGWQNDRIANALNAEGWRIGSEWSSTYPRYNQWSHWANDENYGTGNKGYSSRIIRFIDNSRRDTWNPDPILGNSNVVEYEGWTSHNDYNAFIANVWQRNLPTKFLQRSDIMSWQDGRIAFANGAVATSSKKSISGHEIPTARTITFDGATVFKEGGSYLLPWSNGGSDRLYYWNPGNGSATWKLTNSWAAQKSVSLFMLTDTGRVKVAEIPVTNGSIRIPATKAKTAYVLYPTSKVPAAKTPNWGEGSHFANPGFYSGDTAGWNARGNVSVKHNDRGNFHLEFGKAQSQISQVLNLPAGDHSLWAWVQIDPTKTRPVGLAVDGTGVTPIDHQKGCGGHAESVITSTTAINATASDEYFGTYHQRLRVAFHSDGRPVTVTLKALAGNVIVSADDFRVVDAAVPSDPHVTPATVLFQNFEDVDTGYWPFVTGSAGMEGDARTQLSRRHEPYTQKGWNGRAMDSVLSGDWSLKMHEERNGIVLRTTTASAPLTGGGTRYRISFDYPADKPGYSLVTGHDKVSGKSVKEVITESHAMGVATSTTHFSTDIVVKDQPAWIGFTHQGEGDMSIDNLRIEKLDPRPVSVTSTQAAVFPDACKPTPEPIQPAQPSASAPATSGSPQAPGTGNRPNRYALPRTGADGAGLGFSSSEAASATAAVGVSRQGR

T2: EngEF (Enterococcus faecalis, UniProt Q833X5)
T2 sequence (Q833X5 1-1324): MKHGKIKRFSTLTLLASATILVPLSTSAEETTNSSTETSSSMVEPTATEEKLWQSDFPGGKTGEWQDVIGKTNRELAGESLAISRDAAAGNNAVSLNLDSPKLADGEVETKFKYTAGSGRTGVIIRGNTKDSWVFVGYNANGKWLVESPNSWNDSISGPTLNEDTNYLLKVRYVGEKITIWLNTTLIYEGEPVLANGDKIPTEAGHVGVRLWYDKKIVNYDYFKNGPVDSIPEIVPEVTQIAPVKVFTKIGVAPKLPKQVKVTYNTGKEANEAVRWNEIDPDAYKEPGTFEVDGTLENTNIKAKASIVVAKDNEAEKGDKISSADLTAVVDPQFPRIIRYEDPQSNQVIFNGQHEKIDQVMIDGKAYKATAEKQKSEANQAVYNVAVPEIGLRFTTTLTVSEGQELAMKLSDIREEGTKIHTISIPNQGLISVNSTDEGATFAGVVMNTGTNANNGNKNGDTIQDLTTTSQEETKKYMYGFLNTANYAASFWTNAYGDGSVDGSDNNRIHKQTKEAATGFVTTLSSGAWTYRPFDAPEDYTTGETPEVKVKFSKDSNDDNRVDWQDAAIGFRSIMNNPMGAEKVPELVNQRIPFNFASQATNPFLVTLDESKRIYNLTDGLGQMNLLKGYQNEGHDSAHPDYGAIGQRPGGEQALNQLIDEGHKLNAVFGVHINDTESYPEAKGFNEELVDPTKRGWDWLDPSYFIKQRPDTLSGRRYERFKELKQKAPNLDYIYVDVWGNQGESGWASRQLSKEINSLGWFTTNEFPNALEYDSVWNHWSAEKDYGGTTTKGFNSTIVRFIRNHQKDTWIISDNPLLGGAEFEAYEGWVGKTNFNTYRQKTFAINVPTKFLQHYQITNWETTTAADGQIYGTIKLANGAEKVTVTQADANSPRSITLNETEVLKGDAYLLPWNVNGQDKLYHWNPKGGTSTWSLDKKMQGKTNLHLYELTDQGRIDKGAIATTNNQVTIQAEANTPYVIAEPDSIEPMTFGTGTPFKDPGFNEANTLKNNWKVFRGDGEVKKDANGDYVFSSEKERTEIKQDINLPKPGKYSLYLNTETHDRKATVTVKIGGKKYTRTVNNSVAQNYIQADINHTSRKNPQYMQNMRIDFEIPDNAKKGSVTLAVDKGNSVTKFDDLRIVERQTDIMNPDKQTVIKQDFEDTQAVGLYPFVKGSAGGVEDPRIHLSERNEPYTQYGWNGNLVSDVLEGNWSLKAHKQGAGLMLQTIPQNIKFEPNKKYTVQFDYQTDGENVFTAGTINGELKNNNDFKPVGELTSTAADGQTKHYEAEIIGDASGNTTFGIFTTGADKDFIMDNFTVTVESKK

B1: EngEF (Enterococcus faecalis V583) (protein)
chain: MKHGKIKRFSTLTLLASATILVPLSTSAEETTNSSTETSSSMVEPTATEEKLWQSDFPGGKTGEWQDVIGKTNRELAGESLAISRDAAAGNNAVSLNLDSPKLADGEVETKFKYTAGSGRTGVIIRGNTKDSWVFVGYNANGKWLVESPNSWNDSISGPTLNEDTNYLLKVRYVGEKITIWLNTTLIYEGEPVLANGDKIPTEAGHVGVRLWYDKKIVNYDYFKNGPVDSIPEIVPEVTQIAPVKVFTKIGVAPKLPKQVKVTYNTGKEANEAVRWNEIDPDAYKEPGTFEVDGTLENTNIKAKASIVVAKDNEAEKGDKISSADLTAVVDPQFPRIIRYEDPQSNQVIFNGQHEKIDQVMIDGKAYKATAEKQKSEANQAVYNVAVPEIGLRFTTTLTVSEGQELAMKLSDIREEGTKIHTISIPNQGLISVNSTDEGATFAGVVMNTGTNANNGNKNGDTIQDLTTTSQEETKKYMYGFLNTANYAASFWTNAYGDGSVDGSDNNRIHKQTKEAATGFVTTLSSGAWTYRPFDAPEDYTTGETPEVKVKFSKDSNDDNRVDWQDAAIGFRSIMNNPMGAEKVPELVNQRIPFNFASQATNPFLVTLDESKRIYNLTDGLGQMNLLKGYQNEGHDSAHPDYGAIGQRPGGEQALNQLIDEGHKLNAVFGVHINDTESYPEAKGFNEELVDPTKRGWDWLDPSYFIKQRPDTLSGRRYERFKELKQKAPNLDYIYVDVWGNQGESGWASRQLSKEINSLGWFTTNEFPNALEYDSVWNHWSAEKDYGGTTTKGFNSTIVRFIRNHQKDTWIISDNPLLGGAEFEAYEGWVGKTNFNTYRQKTFAINVPTKFLQHYQITNWETTTAADGQIYGTIKLANGAEKVTVTQADANSPRSITLNETEVLKGDAYLLPWNVNGQDKLYHWNPKGGTSTWSLDKKMQGKTNLHLYELTDQGRIDKGAIATTNNQVTIQAEANTPYVIAEPDSIEPMTFGTGTPFKDPGFNEANTLKNNWKVFRGDGEVKKDANGDYVFSSEKERTEIKQDINLPKPGKYSLYLNTETHDRKATVTVKIGGKKYTRTVNNSVAQNYIQADINHTSRKNPQYMQNMRIDFEIPDNAKKGSVTLAVDKGNSVTKFDDLRIVERQTDIMNPDKQTVIKQDFEDTQAVGLYPFVKGSAGGVEDPRIHLSERNEPYTQYGWNGNLVSDVLEGNWSLKAHKQGAGLMLQTIPQNIKFEPNKKYTVQFDYQTDGENVFTAGTINGELKNNNDFKPVGELTSTAADGQTKHYEAEIIGDASGNTTFGIFTTGADKDFIMDNFTVTVESKK

Legend:
EngCP = EngCP (Clostridium perfringens, UniProt A0A0H2YQ40); format: biochemical
EngPA = molecular target: T1, EngPA; experiment: steady-state kinetics, pNP release at […] nm; format: biochemical; settings: 50 mM sodium phosphate pH 7.5, 5 mM MgCl2, 25°C
EngAL = experiment: steady-state kinetics, pNP release at […] nm; format: biochemical, Alcaligenes sp.; settings: 50 mM sodium phosphate pH 7.5, 5 mM MgCl2, 25°C
EngEF = molecular target: T2, EngEF; experiment: steady-state kinetics, pNP release at […] nm; settings: 50 mM sodium phosphate pH 7.5, 5 mM MgCl2, 25°C
EngSP = EngSP (Streptococcus pneumoniae, UniProt Q2MGH6); experiment: steady-state kinetics, pNP release at […] nm; format: biochemical; settings: 50 mM sodium phosphate pH 7.5, 5 mM MgCl2, 25°C
purified protein = substrate: CC(=O)N[C@H]1[C@H](O[C@H]2[C@@H](O)[C@@H](CO)O[C@H](Oc3ccc([N+](=O)[O-])cc3)[C@@H]2NC(C)=O)O[C@H](CO)[C@@H](O)[C@@H]1O; experiment: purified protein; settings: 50 mM sodium phosphate pH 7.5, 5 mM MgCl2, 25°C

| Molecule | Km (EngCP) | Km (EngPA) | Km (EngAL) | Km (EngEF) | Km (EngSP) | Km (purified protein) | kcat (purified protein) |
| --- | --- | --- | --- | --- | --- | --- | --- |
| CC(=O)N[C@H]1[C@@H](Oc2ccc([N+](=O)[O-])cc2)O[C@H](CO)[C@H](O)[C@@H]1O[C@@H]1O[C@H](CO)[C@H](O)[C@H](O)[C@H]1O [Galβ1,3GalNAcα1pNP] | 70.9 µM | 3.78 µM | 33.9 µM | 47.9 µM | 40.4 µM | – | – |
| B1 | – | – | – | – | – | 20.03 µM | 9.43 s⁻¹ |
